Assay [1] has as its target T1, TAS1R2 (Homo sapiens, UniProt Q8TE23).
T1 construct: TAS1R2/TAS1R3 heterodimer; with TAS1R3 (human)
T1 sequence (Q8TE23 20-839): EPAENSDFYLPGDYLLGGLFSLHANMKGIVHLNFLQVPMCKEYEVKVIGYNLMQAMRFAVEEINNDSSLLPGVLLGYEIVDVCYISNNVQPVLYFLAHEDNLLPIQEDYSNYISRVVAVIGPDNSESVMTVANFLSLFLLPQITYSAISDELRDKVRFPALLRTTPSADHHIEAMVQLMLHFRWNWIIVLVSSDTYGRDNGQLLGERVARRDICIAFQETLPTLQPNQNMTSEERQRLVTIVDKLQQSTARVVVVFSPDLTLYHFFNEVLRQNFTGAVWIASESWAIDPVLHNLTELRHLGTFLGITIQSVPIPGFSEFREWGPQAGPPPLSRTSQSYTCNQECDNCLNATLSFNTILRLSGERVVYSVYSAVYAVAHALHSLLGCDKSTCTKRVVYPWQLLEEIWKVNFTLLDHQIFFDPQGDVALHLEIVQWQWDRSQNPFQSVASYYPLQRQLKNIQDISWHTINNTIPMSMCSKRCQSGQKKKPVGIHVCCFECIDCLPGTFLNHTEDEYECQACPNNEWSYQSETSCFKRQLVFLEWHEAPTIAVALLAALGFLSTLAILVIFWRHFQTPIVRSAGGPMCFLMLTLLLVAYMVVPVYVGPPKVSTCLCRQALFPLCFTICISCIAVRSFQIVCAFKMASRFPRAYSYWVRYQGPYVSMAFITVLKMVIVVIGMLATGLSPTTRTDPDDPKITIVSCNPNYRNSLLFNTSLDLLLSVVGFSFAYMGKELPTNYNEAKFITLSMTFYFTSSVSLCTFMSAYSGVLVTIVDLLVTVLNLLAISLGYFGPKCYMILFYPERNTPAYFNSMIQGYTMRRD
T1 sequence (Q7RTX0 21-852 partner): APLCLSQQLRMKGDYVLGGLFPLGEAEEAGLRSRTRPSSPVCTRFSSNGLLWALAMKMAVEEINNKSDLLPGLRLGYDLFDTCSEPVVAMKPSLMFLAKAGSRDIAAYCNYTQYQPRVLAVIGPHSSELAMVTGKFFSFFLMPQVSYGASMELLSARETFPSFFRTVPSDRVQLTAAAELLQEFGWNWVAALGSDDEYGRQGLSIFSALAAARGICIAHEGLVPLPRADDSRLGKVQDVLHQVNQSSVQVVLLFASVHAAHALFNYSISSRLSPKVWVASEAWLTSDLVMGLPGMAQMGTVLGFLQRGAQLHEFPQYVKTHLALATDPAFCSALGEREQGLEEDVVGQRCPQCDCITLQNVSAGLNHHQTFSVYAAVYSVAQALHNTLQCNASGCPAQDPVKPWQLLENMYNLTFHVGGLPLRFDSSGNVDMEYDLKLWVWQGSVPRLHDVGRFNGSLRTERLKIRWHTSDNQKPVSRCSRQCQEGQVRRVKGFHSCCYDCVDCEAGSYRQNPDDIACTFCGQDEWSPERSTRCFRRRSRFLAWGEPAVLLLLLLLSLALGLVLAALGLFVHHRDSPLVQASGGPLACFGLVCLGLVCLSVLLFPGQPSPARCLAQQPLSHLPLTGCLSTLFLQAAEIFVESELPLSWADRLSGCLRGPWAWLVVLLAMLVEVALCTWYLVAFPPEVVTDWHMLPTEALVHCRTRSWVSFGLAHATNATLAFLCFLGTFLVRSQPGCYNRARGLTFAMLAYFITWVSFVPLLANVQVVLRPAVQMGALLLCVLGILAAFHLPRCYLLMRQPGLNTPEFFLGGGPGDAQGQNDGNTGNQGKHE
Briefly: cell-based calcium imaging of the expressed human/human receptor.

The target in assay [2] is T2, TAS1R2 (Homo sapiens, UniProt Q8TE23).
T2 construct: VFT domain of TAS1R2 in the TAS1R2/TAS1R3 heterodimer; with TAS1R3 (human; also mouse TAS1R3)
T2 sequence (Q8TE23 22-839): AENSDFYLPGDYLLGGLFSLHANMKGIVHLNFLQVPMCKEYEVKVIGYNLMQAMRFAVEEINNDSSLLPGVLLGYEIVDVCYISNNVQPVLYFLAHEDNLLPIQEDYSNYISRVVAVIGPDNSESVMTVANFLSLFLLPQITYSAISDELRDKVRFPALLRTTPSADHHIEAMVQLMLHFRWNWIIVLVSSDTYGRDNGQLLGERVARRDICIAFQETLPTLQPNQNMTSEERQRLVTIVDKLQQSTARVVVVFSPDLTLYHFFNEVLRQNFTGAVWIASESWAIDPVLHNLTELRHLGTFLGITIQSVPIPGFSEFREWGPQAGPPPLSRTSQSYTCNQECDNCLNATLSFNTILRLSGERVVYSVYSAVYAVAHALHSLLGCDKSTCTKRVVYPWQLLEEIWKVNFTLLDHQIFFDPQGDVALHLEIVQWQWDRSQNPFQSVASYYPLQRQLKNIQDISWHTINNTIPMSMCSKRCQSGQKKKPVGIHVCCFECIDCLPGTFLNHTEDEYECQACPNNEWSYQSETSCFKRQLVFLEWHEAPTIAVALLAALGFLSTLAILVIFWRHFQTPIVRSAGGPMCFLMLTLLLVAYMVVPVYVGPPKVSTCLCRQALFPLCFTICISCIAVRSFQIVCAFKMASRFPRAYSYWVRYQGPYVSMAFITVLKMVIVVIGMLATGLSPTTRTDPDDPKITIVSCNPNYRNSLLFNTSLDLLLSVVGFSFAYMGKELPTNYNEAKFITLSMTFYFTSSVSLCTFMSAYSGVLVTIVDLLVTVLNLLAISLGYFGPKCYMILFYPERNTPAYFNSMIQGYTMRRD
T2 sequence (Q7RTX0 21-852 partner): T1 sequence (Q7RTX0 21-852 partner)
As to the kind of experiment: cryo-EM structures of human/human and human/mouse receptor with advantame; EC50 from cell-based calcium imaging (human/human). The text has this:
cryo-EM structures of human/human and human/mouse receptor with advantame; EC50 from cell-based calcium imaging (human/human) on TAS1R2 | Advantame also yields well-defined ligand density in the TAS1R2 VFT pocket of both human/mouse and human/human receptors

As a reminder, the pEC50 is −log10 of the EC50, conventionally taken in molar units.

pEC50: −log10 of the molar value.

Take `COC(=O)[C@H](Cc1ccccc1)NC(=O)[C@H](CC(=O)O)NCCC(C)(C)C` [neotame]: the pEC50 in assay [1] was 5.57.

With `COC(=O)[C@H](Cc1ccccc1)NC(=O)[C@H](CC(=O)O)NCCCc1ccc(OC)c(O)c1` [Adv, advantame], the pEC50 in assay [2] is 6.05.

For the origin of these results see publication PMC12484785, “Structure and activation mechanism of human sweet taste receptor” (Cell Research, 2025).
